Tests used:
[1] = Evaluation of inhibitory activity against adenylosuccinate synthetase
HL-60 = assay: In vitro evaluation of inhibitory activity of HL60 human promyelocytic tumor cell; type: functional; conditions: read-out: ED50 (the source's name)
[2] = Evaluation of inhibitory activity of adenylosuccinate synthetase

For `N[C@@H](CN(O)N=O)C(=O)O` [LALANOSINE], the ED50 [1] was 7000 µM and the EC50 (HL-60) was 2 µM.
For `Nc1c(C(=O)NC(CN(O)N=O)C(=O)O)ncn1[C@@H]1O[C@H](CO)[C@@H](O)[C@H]1O` (stereo not given in full), the ED50 [1] was greater than 1000 µM, the ED50 [2] was 0.3 µM and the EC50 (HL-60) was greater than 100 µM.

From ChEMBL document CHEMBL1122611, “Synthesis and in vitro biological evaluation of N-[(5-amino-1-beta-D-ribofuranosyl-1H-imidazol-4-yl)carbonyl]-3- (hydroxynitrosamino)-L-alanine (L-alanosine AICO ribonucleoside)” (1984)
